Test results reported in US8476292B2, “Amide and carbamate derivatives of N-{2-[4-amino-2-(ethoxymethyl)-1H-imidazo[4,5-c] quinolin-1-Yl]-1,1-dimethylethyl}methanesulfonamide and methods” (3M Innovative Properties Company, priority 2005, dated 2013).

melting point	SMILES
75 to 76 °C	CCOCc1nc2c(NC(C)=O)nc3ccccc3c2n1CC(C)(C)NS(C)(=O)=O [Example 1, N-(2-Ethoxymethyl-1-{2-methyl-2-[(methylsulfonyl)amino]propyl}-1H-imidazo[4,5-c]quinolin-4-yl)acetamide]
80 to 83 °C	CCOCc1nc2c(NC(=O)c3ccccc3)nc3ccccc3c2n1CC(C)(C)NS(C)(=O)=O [Example 2, N-(2-Ethoxymethyl-1-{2-methyl-2-[(methylsulfonyl)amino]propyl}-1H-imidazo[4,5-c]quinolin-4-yl)benzamide]
67 to 70 °C	CCOCc1nc2c(NC(=O)C(C)C)nc3ccccc3c2n1CC(C)(C)NS(C)(=O)=O [Example 3]
163 to 165 °C	CCOCc1nc2c(NC(=O)OCC)nc3ccccc3c2n1CC(C)(C)NS(C)(=O)=O [Example 5, Ethyl 2-Ethoxymethyl-1-{2-methyl-2-[(methylsulfonyl)amino]propyl}-1H-imidazo[4,5-c]quinolin-4-ylcarbamate]
177 to 179 °C	CCCOC(=O)Nc1nc2ccccc2c2c1nc(COCC)n2CC(C)(C)NS(C)(=O)=O [Example 6, Propyl 2-Ethoxymethyl-1-{2-methyl-2-[(methylsulfonyl)amino]propyl}-1H-imidazo[4,5-c]quinolin-4-ylcarbamate]
125 to 127 °C	CCCCOC(=O)Nc1nc2ccccc2c2c1nc(COCC)n2CC(C)(C)NS(C)(=O)=O [Example 7, Butyl 2-Ethoxymethyl-1-{2-methyl-2-[(methylsulfonyl)amino]propyl}-1H-imidazo[4,5-c]quinolin-4-ylcarbamate]
